pIC50: −log10 of the molar value. In brackets after ≈: the same amount, converted by molar mass. Read-outs that look alike come from different tables or passages of the source.
How the values were obtained:
P388 leukemia cells = assay: Cytotoxic assay with P388 leukemia cells; type: cell-based, mouse
Source text: The tubulin polymerization compounds can also be tested for their ability to inhibit tumor cell growth.

NCI-H460 = assay: Growth inhibitory activity, human cancer cell line NCI-H460 (SRB); type: cell-based; details: Lung-NSC NCI-H460
Procedure: (§1) The assay used is described in Monks et al. Briefly, the cell suspensions, diluted according to tho particular cell type and the expected target cell density (5,000-40,000 cells per well based on cell growth characteristics), were added by pipet (100 μl) to 96-well microtiter plates. Inoculates were allowed a preincubation time of 24-28 hours at 37° C. for stabilization. Incubation with the inhibitor compounds lasted for 48 hours in 5% CO2 atmosphere and 100% humidity. Determination of cell growth was done by in situ fixation of cells, followed by staining with a protein-binding dye, sulforhodamine B (SRB), which binds to the basic amino acids of cellular macromolecules. The solubilized stain was measured spectrophotometrically.

BXPC-3 = assay: Human cancer cell line studies, BXPC-3; type: cell-based; details: Pancreas adn BXPC-3
Procedure: as §1

FADU = assay: Human cancer cell line studies, FADU; type: cell-based; details: Pharynx-sqam FADU
Procedure: as §1

DU-145 = assay: Human cancer cell line studies, DU-145; type: cell-based; details: Prostate DU-145
Procedure: as §1

RPMI-7951 = assay: Human cancer cell line studies, RPMI-7951; type: cell-based; details: Melanoma RPMI-7951
Procedure: as §1, with “3-(3′,4′,5′-Trimethoxybenzoyl)-2-(4′-methoxyphenyl)-6-methoxybenzo[b]-thiophene was evaluated in terms of growth inhibitory activity against several human cancer cell lines, including ovarian CNS, renal, lung, colon and melanoma lines. The assay” for “The assay”

U251 = assay: Human cancer cell line studies, U251; type: cell-based; details: CNS U251
Procedure: as §1, with “3-(3′,4′,5′-Trimethoxybenzoyl)-2-(4′-methoxyphenyl)-6-methoxybenzo[b]-thiophene was evaluated in terms of growth inhibitory activity against several human cancer cell lines, including ovarian CNS, renal, lung, colon and melanoma lines. The assay” for “The assay”

tubulin [1] = system: T1, tubulin; assay: Tubulin polymerization assay; type: biochemical, bovine
T1 construct: Purified tubulin is obtained from bovine brain cells as described in Hamel and Lin
Procedure: The ability of the various above described compounds to inhibit tubulin polymerization can be determined by in vitro assay. A suitable assay system is that described by Bai et al. A method for purifying tubulin from bovine brain cells is described by Hamel and Lin.
IC50 values for tubulin polymerization were determined according to the procedure described in Bai et al. Purified tubulin is obtained from bovine brain cells as described in Hamel and Lin. Various amounts of inhibitor were preincubated for 15 minutes at 37° C. with purified tubulin. After the incubation period, the reaction was cooled and GTP was added to induce tubulin polymerization. Polymerization was then monitored in a Gilford spectrophotometer at 350 nm. The final reaction mixtures (0.25 ml) contained 1.5 mg/ml tubulin, 0.6 mg/ml microtubule-associated proteins (MAPs), 0.5 mM GTP, 0.5 mM MgCl2, 4% DMSO and 0.1 M 4-morpholineethanesulfonate buffer (MES, pH 6.4). […]

SK-N-SH = assay: Human cancer cell line studies, SK-N-SH; type: cell-based; details: Neuroblast SK-N-SH
Procedure: as §1

SW1736 = assay: Human cancer cell line studies, SW1736; type: cell-based; details: Thyroid ca SW1736
Procedure: as §1

tubulin [2] = assay: Inhibition of binding of [3H]colchicine to tubulin; details: comparator, concentration not given
Source text: A measurement of each compound's tubulin affinity may also be determined through the compound's ability to inhibit colchichine-tubulin binding. A suitable assay is that described by Kang et al., involving the use of commercially available tritiated colchicine. Decreases in the amount of [^3H]colchicine-tubulin interaction due to the competitive binding of one of the novel inhibitors of this invention may be measured by autoradiography or scintillation counting.

[3] = P388 mouse leukemia, dosage required to inhibit 50% of cell growth, read-out: ED50 (the source's name)
[4] = Homo sapiens, U-251, read-out: GI50
[5] = purified tubulin […], GTP-induced, 350 nm, final steady-state number for compounds other than 1A and 10A, read-out: IC50 for inhibition of tubulin polymerization
[6] = Mus musculus, P388, read-out: ED50
[7] = Homo sapiens, SW-1736, read-out: GI50
[8] = P388 mouse leukemia, dosage required to inhibit 50% of cell growth

Structure (SMILES)	IC50 (P388 leukemia cells; [3]) [µg/mL]	GI50 (NCI-H460; Homo sapiens, read-out: GI50) [µg/mL]	GI50 (BXPC-3; Homo sapiens, read-out: GI50) [µg/mL]	GI50 (FADU; Homo sapiens, read-out: GI50) [µg/mL]	GI50 (DU-145; Homo sapiens, read-out: GI50) [µg/mL]	GI50 (RPMI-7951; Homo sapiens, read-out: GI50) [µg/mL]	GI50 (U251; [4]) [µg/mL]	also measured
COc1ccc(C(=O)c2c(-c3ccc(OC)cc3)sc3cc(OC)ccc23)cc1 [Compound 5A, 3-(4′-methoxybenzoyl)-2-(4′-methoxyphenyl)-6-methoxybenzo[b]thiophene]	> 100	> 10	8.9 (≈ 22 µM)	> 10	> 10	> 10	> 10	
COc1ccc(/C=C\c2cc(OC)c(OC)c(OC)c2)cc1N=[N+]=[N-] [Compound 34E, (Z)-1-(3′azido-4′-methoxyphenyl)-2-(3″,4″,5″-trimethoxyphenyl)ethene]		0.0056 (≈ 0.0164 µM)	0.005 (≈ 0.0146 µM)	0.0076 (≈ 0.0223 µM)	0.0091 (≈ 0.0267 µM)			pIC50 (tubulin [1]; [5]): 5.89; IC50 (P388 leukemia cells; [6]): 0.0384 µg/mL (≈ 0.112 µM); GI50 (SK-N-SH; Homo sapiens, read-out: GI50): 0.0033 µg/mL (≈ 0.00967 µM); GI50 (SW1736; [7]): 1.2 µg/mL (≈ 3.52 µM)
COc1ccc(-c2sc3cc(OC)ccc3c2C(=O)CCc2cc(OC)c(OC)c(OC)c2)cc1 [Compound 8A, 3-[3′-(3′,4′,5′-trimethoxyphenyl)propionyl]-2-(4′-methoxyphenyl)-6-methoxybenzo[b]thiophene]								ED50 (P388 leukemia cells; [8]): >10 µg/mL; GI50 (NCI-H460): 3.8 µg/mL (≈ 7.71 µM); GI50 (BXPC-3): >10 µg/mL; GI50 (FADU): 9.1 µg/mL (≈ 18.5 µM); GI50 (DU-145): >10 µg/mL; GI50 (RPMI-7951): >10 µg/mL; GI50 (U251): 4.5 µg/mL (≈ 9.14 µM)
COc1ccc(-c2sc3cc(OC)ccc3c2Oc2cc(OC)c(OC)c(OC)c2)cc1 [Compound 23B, 3-(3′,4′,5′-trimethoxyphenoxy)-2-(4′-methoxyphenyl)-6-methoxybenzo[b]thiophene]		0.31 (≈ 0.685 µM)	0.23 (≈ 0.508 µM)	0.098 (≈ 0.217 µM)	0.42 (≈ 0.928 µM)			pIC50 (tubulin [1]; [5]): 5.85; IC50 (P388 leukemia cells; [6]): 3.09 µg/mL (≈ 6.83 µM); GI50 (SK-N-SH; Homo sapiens, read-out: GI50): 0.063 µg/mL (≈ 0.139 µM); GI50 (SW1736; [7]): 0.73 µg/mL (≈ 1.61 µM)
CCOc1ccc(-c2sc3cc(OCC)ccc3c2C(=O)c2cc(OCC)c(OCC)c(OCC)c2)cc1 [Compound 9A, 3-(3′,4′,5′-triethoxybenzoyl)-2-(4′-ethoxyphenyl)-6-ethoxybenzo[b]thiophene]	> 10	> 10	> 10	> 10	> 10	> 10	> 10	
COc1ccc(-c2sc3cc(OC)ccc3c2C(=O)c2ccc(OC)c(OC)c2)cc1 [Compound 4A, 3-(3′,4′-dimethoxybenzoyl)-2-(4′-methoxyphenyl)-6-methoxybenzo[b]thiophene]	> 10	4.6 (≈ 10.6 µM)	5.2 (≈ 12 µM)	4.7 (≈ 10.8 µM)	> 10			pIC50 (tubulin [1]; [5]): < 4.40; GI50 (SK-N-SH; Homo sapiens, read-out: GI50): 3.2 µg/mL (≈ 7.36 µM); GI50 (SW1736; [7]): > 10 µg/mL
COc1ccc(-c2sc3cc(OC)ccc3c2C(=O)Cc2cc(OC)c(OC)c(OC)c2)cc1 [Compound 21A]								ED50 (P388 leukemia cells; [8]): >10 µg/mL; GI50 (NCI-H460): >10 µg/mL; GI50 (BXPC-3): 9.8 µg/mL (≈ 20.5 µM); GI50 (FADU): 7.9 µg/mL (≈ 16.5 µM); GI50 (DU-145): >10 µg/mL; GI50 (RPMI-7951): >10 µg/mL; GI50 (U251): >10 µg/mL
CCOc1ccc(C(=O)c2c(-c3ccc(OC)cc3)sc3cc(OC)ccc23)cc1 [Compound 6A, 3-(4′-ethoxybenzoyl)-2-(4′-methoxyphenyl)-6-methoxybenzo[b]thiophene]	> 100	2.4 (≈ 5.73 µM)	0.65 (≈ 1.55 µM)	0.48 (≈ 1.15 µM)	3.9 (≈ 9.32 µM)	3.2 (≈ 7.65 µM)	0.43 (≈ 1.03 µM)	
COc1ccc(-c2sc3cc(OC)ccc3c2C(=O)Cc2ccccc2)cc1 [Compound 20A, 3-(phenylacetyl)-2-(4′-methoxyphenyl)-6-methoxybenzo[b]thiophene]	> 10	> 10	> 10	9.2 (≈ 23.7 µM)	> 10	> 10	> 10	
COc1ccc(/C=C\c2cc(OC)c(OC)c(OC)c2)cc1O [Combretastatin A-4, reference compound]								pIC50 (tubulin [1]; read-out: 50% inhibition of the maximum tubulin assembly rate, inhibition of rate rather than steady state): […]; inhibition of the binding of [3H]colchicine to tubulin (tubulin [2]): total inhibition
COc1ccc(-c2sc3cc(OC)ccc3c2C(=O)c2cc(OC)c(OC)c(OC)c2)cc1 [Compound 1A, 3-(3′,4′,5′-trimethoxybenzoyl)-2-(4′-methoxyphenyl)-6-methoxybenzo[b]thiophene]								melting point: 131 to 133 °C
CCOc1cc(C(=O)c2c(-c3ccc(OC)cc3)sc3cc(OC)ccc23)cc(OCC)c1OCC [Compound 7A, 3-(3′,4′,5′-triethoxybenzoyl)-2-(4′-methoxyphenyl)-6-methoxybenzo[b]thiophene]	> 100	> 10	> 10	> 10	> 10	> 10	> 10	
COc1ccc(/C=C\c2cc(OC)c(OC)c(OC)c2)cc1[N+](=O)[O-] [Compound 31E, (Z)-1-(4″-methoxy-3″-nitrophenyl)-2-(3′,4′,5′-trimethoxyphenyl)ethene]								ED50 (P388 leukemia cells; [8]): 4.0 µg/mL (≈ 11.6 µM); GI50 (NCI-H460): 0.043 µg/mL (≈ 0.125 µM); GI50 (BXPC-3): 0.037 µg/mL (≈ 0.107 µM); GI50 (SK-N-SH): >10 µg/mL; GI50 (SW1736): 0.056 µg/mL (≈ 0.162 µM); GI50 (FADU): 2.6 µg/mL (≈ 7.53 µM); GI50 (DU-145): 0.046 µg/mL (≈ 0.133 µM)

— patent US20010034454A1, “Description anti-mitotic agents which inhibit tubulin polymerization” (BYLOR UNIVERSITY AND ARIZONA DESEASE CONTROL RESEARCH …, priority 1998, published 2001)
